Nc1cccnc1
solubility (mole fraction)
Conditions | 283.15 K | 288.15 K | 293.15 K | 298.15 K | 303.15 K | 308.15 K | 313.15 K | 318.15 K | 323.15 K
in ethanol | 0.438 | 0.476 | 0.518 | 0.566 | 0.612 | 0.66 | 0.71 | 0.764 | 0.821
in toluene | 0.0297 | 0.0427 | 0.0646 | 0.0971 | 0.152 | 0.223 | 0.313 | 0.418 | 0.546

From BigSolDB 2.1
